The record followed here is patent US10711004B2 (Genentech, Inc., priority 2018, dated 2020).

Read-outs that look alike come from different tables or passages of the source.

The target in the experiment is human TRPA1 channel (Homo sapiens (Human), UniProt O75762). The experiment is described as follows: hTRPA1 CHO Ca2+ FLIPR Tetra assay, block of cinnamaldehyde induced calcium influx. The settings on record: for IC50: CHO cells expressing TRPA1, Hill coefficient fixed to 1.5. Format: cell-based. An outline of the steps: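 IC50 values come from fixed-Hill fits of inhibition of cinnamaldehyde-induced (about EC50 level) calcium influx measured by FLIPR Tetra. Before agonist, TRPA1-expressing CHO cells loaded with calcium indicator were exposed to compound for 10 or 90 min at room temperature in HEPES-buffered HBSS, pH 7.4, with 0.02% BSA.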

Where [1] appears, read: read-out: hTRPA1 IC50 (10 min), compounds incubated 10 minutes at room temperature before cinnamaldehyde agonist.
Setting [2] is: read-out: hTRPA1 IC50 (90 min), compounds incubated 90 minutes at room temperature before cinnamaldehyde agonist.

human TRPA1 channel, sequence (O75762 whole entry): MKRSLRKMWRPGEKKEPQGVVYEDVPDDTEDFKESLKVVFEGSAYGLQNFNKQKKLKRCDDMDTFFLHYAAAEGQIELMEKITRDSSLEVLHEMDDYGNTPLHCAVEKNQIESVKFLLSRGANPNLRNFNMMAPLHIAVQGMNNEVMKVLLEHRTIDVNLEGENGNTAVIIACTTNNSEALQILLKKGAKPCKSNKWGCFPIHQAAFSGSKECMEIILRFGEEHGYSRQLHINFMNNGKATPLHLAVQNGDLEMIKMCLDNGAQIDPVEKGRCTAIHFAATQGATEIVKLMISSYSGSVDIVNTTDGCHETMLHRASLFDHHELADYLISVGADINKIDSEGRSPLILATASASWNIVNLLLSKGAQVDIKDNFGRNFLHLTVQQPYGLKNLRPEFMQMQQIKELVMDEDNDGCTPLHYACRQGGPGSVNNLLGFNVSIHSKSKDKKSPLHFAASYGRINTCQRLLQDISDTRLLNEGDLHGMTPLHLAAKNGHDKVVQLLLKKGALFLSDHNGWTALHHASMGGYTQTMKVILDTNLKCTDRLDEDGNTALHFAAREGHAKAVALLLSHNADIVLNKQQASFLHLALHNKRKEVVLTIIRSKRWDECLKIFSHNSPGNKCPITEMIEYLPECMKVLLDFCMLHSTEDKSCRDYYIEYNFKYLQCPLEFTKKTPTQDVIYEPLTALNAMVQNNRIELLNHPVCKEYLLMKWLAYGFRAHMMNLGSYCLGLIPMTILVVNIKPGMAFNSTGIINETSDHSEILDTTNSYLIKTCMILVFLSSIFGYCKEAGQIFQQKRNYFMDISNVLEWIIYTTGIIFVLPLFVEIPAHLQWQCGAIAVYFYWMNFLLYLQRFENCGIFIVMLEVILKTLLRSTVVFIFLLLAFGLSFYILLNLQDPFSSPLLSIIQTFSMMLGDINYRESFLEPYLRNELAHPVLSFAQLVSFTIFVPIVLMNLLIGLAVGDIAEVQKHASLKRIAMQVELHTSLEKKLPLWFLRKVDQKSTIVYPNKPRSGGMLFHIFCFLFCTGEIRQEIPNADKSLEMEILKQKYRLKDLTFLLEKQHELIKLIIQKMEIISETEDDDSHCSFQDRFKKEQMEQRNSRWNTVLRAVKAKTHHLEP

In the case of `Cn1c(=O)ccc2ncn(Cc3nc([C@H]4[C@@H]5CN(c6cc(Cl)ccn6)C[C@@H]54)no3)c(=O)c21` [Example Compound 174, 3-((3-((1R,5S,6r)-3-(4-chloropyridin-2-yl)-3-azabicyclo[3.1.0]hexan-6-yl)-1,2,4-oxadiazol-5-yl)methyl)-5-methyl-3,5-dihydropyrido[3,2-d]pyrimidine-4,6-dione], the half-maximal inhibitory concentration (IC50) (usually the midpoint of a concentration-inhibition curve) runs as follows: under setting [1], 60.6 nM; under setting [2], 50 nM. In the same order, the values of `Cn1c(NCCO)nc2ncn(Cc3nc([C@H]4[C@@H]5C=C(c6ccccc6)C[C@@H]54)no3)c(=O)c21` [Example Compound 252, 8-(2-hydroxyethylamino)-7-methyl-1-[[3-[(1S,5S,6R)-3-phenyl-6-bicyclo[3.1.0]hex-2-enyl]-1,2,4-oxadiazol-5-yl]methyl]purin-6-one] are 304 nM and 68 nM.

Consider `Cn1cnc2ncn(Cc3nc([C@H]4[C@@H]5C=C(c6cccnc6)C[C@@H]54)no3)c(=O)c21` [Example Compound 133, 7-methyl-1-((3-((1S,5S,6R)-3-(pyridin-3-yl)bicyclo[3.1.0]hex-2-en-6-yl)-1,2,4-oxadiazol-5-yl)methyl)-1,7-dihydro-6H-purin-6-one], for which the 50% inhibitory concentration (IC50) was 179 nM under setting [1] and 160 nM under setting [2]. In the same order, the values of `COc1ccc(C2=C[C@@H]3[C@H](C2)[C@H]3c2noc(Cn3cnc4ncn(C)c4c3=O)n2)cc1` [Example Compound 118, 1-((3-((1S,5S,6R)-3-(4-methoxyphenyl)bicyclo[3.1.0]hex-2-en-6-yl)-1,2,4-oxadiazol-5-yl)methyl)-7-methyl-1,7-dihydro-6H-purin-6-one] are 41.8 nM and 15 nM. Turning to `Cc1cnn2ncn(Cc3nc([C@H]4[C@@H]5CN(c6cc(F)ccn6)C[C@@H]54)no3)c(=O)c12` [Example Compound 117, 3-((3-((1R,5S,6r)-3-(4-fluoropyridin-2-yl)-3-azabicyclo[3.1.0]hexan-6-yl)-1,2,4-oxadiazol-5-yl)methyl)-5-methylpyrazolo[5,1-f][1,2,4]triazin-4(3H)-one], the IC50 under setting [1] was determined as 19.2 nM and the concentration for half-maximal inhibition (IC50) under setting [2] was determined as 7.5 nM. Regarding `Cn1cnc2ncn(Cc3nc([C@H]4[C@@H]5C=C(c6cccc(F)c6)C[C@@H]54)no3)c(=O)c21` [Example Compound 114, 1-((3-((1S,5S,6R)-3-(3-fluorophenyl)bicyclo[3.1.0]hex-2-en-6-yl)-1,2,4-oxadiazol-5-yl)methyl)-7-methyl-1,7-dihydro-6H-purin-6-one], the “TRPA1 IC50 compared with 3-azabicyclo[3.1.0]hexene linker and cyclobutylene linker analogues” value (bicyclo[3.1.0]hexene linker compounds versus same-substituent analogues (compounds 16, 191; 26, 1)) was “improved TRPA1 IC50 values”. For the same compound, the IC50 came out at 6.4 nM under setting [1] and 1.7 nM under setting [2]. In the case of `O=c1c2cccnc2ncn1Cc1nc([C@H]2[C@@H]3CN(c4ccccc4)C[C@@H]32)no1` [Example Compound 194, 3-((3-((1R,5S,6r)-3-phenyl-3-azabicyclo[3.1.0]hexan-6-yl)-1,2,4-oxadiazol-5-yl)methyl)pyrido[2,3-d]pyrimidin-4(3H)-one], the IC50 runs as follows: under setting [1], 20.1 nM; under setting [2], 15 nM.

As for `O=c1c2c(Cl)ccnc2ncn1Cc1nc([C@H]2C[C@](F)(c3ccc(Cl)cc3)C2)no1` [Example Compound 121, 5-chloro-3-((3-((1s,3s)-3-(4-chlorophenyl)-3-fluorocyclobutyl)-1,2,4-oxadiazol-5-yl)methyl)pyrido[2,3-d]pyrimidin-4(3H)-one], the IC50 came to 13.1 nM under setting [1] and 22 nM under setting [2].

Take `Cc1cc(N)nc2ncn(Cc3nc([C@H]4[C@@H]5C=C(c6ccccc6)C[C@@H]54)no3)c(=O)c12` [Example Compound 238, 7-amino-5-methyl-3-[[3-[(1S,5S,6R)-3-phenyl-6-bicyclo[3.1.0]hex-2-enyl]-1,2,4-oxadiazol-5-yl]methyl]pyrido[2,3-d]pyrimidin-4-one]: the IC50 runs as follows: under setting [1], 11.3 nM; under setting [2], 1.5 nM. `Cn1cnc2ncn(Cc3nc([C@H]4[C@@H]5CN(c6cccnc6)C[C@@H]54)no3)c(=O)c21` [Example Compound 18, 7-methyl-1-[[3-[(1R,5S,6r)-3-(3-pyridyl)-3-azabicyclo[3.1.0]hexan-6-yl]-1,2,4-oxadiazol-5-yl]methyl]purin-6-one]: the half-inhibitory concentration (IC50) under setting [1] came to 778 nM.

Take `Cn1cnc2ncn(Cc3nc([C@H]4[C@@H]5CN(c6ccc(Cl)nc6)C[C@@H]54)no3)c(=O)c21` [Example Compound 34, 7-methyl-1-[[3-[(1R,5S,6r)-3-[6-chloro-3-pyridyl]-3-azabicyclo[3.1.0]hexan-6-yl]-1,2,4-oxadiazol-5-yl]methyl]purin-6-one]: the half-maximal inhibitory concentration (IC50) under setting [1] is 464 nM. Regarding `Cn1cnc2ncn(Cc3nc([C@H]4C[C@H](c5cc(Cl)ccc5F)C4)no3)c(=O)c21` [Example Compound 209, 1-((3-((1r,3r)-3-(5-chloro-2-fluorophenyl)cyclobutyl)-1,2,4-oxadiazol-5-yl)methyl)-7-methyl-1,7-dihydro-6H-purin-6-one], the IC50 under setting [1] came to 886 nM. As for `COc1cccc(N2C[C@@H]3[C@H](C2)[C@H]3c2noc(Cn3cnc4ncn(C)c4c3=O)n2)c1` [Example Compound 13, 7-methyl-1-[[3-[(1R,5S,6 r)-3-(3-methoxyphenyl)-3-azabicyclo[3.1.0]hexan-6-yl]-1,2,4-oxadiazol-5-yl]methyl]purin-6-one], under setting [1], the half-inhibitory concentration (IC50) is 158 nM. As for `Cn1cnc2ncn(Cc3nc([C@@H]4[C@H]5C=C(c6ccc(-c7cnco7)cc6)C[C@H]54)no3)c(=O)c21` [Example Compound 277, 7-methyl-1-[[3-[(1R,5R,6S)-3-(4-oxazol-5-ylphenyl)-6-bicyclo[3.1.0]hex-2-enyl]-1,2,4-oxadiazol-5-yl]methyl]purin-6-one], the concentration for half-maximal inhibition (IC50) came to 16.8 nM (compounds incubated 10 minutes at room temperature before cinnamaldehyde agonist) and 11 nM (compounds incubated 90 minutes at room temperature before cinnamaldehyde agonist).

As for `Cn1cnc2ncn(Cc3nc([C@H]4[C@@H]5CN(c6ccc(Cl)cn6)C[C@@H]54)no3)c(=O)c21` [Example Compound 205, 1-((3-((1R,5S,6r)-3-(5-chloropyridin-2-yl)-3-azabicyclo[3.1.0]hexan-6-yl)-1,2,4-oxadiazol-5-yl)methyl)-7-methyl-1,7-dihydro-6H-purin-6-one], the IC50 by setting is: under setting [1], 496 nM; under setting [2], 86 nM. On to `Cc1cncc2ncn(Cc3nc([C@H]4[C@@H]5CN(c6cccc(Cl)c6)C[C@@H]54)no3)c(=O)c12`, for which, under setting [1], the IC50 stood at 81.5 nM. In the case of “1-((3-((1r,3r)-3-((3-chlorophenyl)difluoromethyl) cyclobutyl)-1,2,4-oxadiazol-5-yl)methyl)-7-methyl-1,7-dihydro-6H-purin-6-one [Example Compound 81]”, under setting [1], the IC50 is 143 nM. On to `Cc1cc(C#N)nc2ncn(Cc3nc([C@H]4C[C@](F)(c5ccc(F)cc5)C4)no3)c(=O)c12` [Example Compound 166, 3-((3-((1s,3s)-3-fluoro-3-(4-fluorophenyl)cyclobutyl)-1,2,4-oxadiazol-5-yl)methyl)-5-methyl-4-oxo-3,4-dihydropyrido[2,3-d]pyrimidine-7-carbonitrile], for which the IC50 under setting [1] was found to be 37.6 nM. Take `O=c1c2cccnc2ncn1Cc1nc([C@@H]2[C@H]3C=C(c4cc(Cl)ccn4)C[C@H]32)no1` [Example Compound 162, 3-((3-((1R,5R,6S)-3-(4-chloropyridin-2-yl)bicyclo[3.1.0]hex-2-en-6-yl)-1,2,4-oxadiazol-5-yl)methyl)pyrido[2,3-d]pyrimidin-4(3H)-one]: the half-maximal inhibitory concentration (IC50) under setting [1] stood at 132 nM and the 50% inhibitory concentration (IC50) under setting [2] was determined as 88 nM.
